According to patent publication US12269823B2, “Crystal form of pyridopyrimidine derivative and preparation method thereof” (JIANGSU HENGRUI MEDICINE CO., LTD., priority 2020, dated 2025):

What was measured:
[1] = system: IL-12 secretion in peripheral blood mononuclear cells (PBMCs); assay: Stimulation of IL-12 secretion in PBMCs; assay type: cell-based, human; settings: 24 h incubation
Protocol: Test example 5. Determination of the ability of the compound disclosed herein to stimulate IL-12 and IFNγ secretion in peripheral blood mononuclear cells (PBMCs) The ability of the compound disclosed herein to stimulate IL-12 and IFNγ secretion in PBMCs was determined by the following procedures:
• 1. RPMI 1640 (Invitrogen, 11875), • 2. FBS (Gibco, 10099-141), • 3. Ficoll-Paque PREMIUM (GE, 17-5442-02), • 4. Trypan blue solution (Sigma, T8154-100ML), • 5. SepMateTM-50 (Stemcell, 15460), • 6. Bright-Line™ cytometer (Sigma, Z359629-1EA), • 7. 96-well flat bottom plate (Corning, 3599), • 8. 96-well v-bottom plate (Corning, 3894), • 9. Human IL-12 ELISA kit (NEOBIOSCIENCE, EHC152.96), • 10. Human IFN γ kit (Cisbio, 62HIFNGPEG), • 11. PHERAStar Multi-Mode Microplate Reader (BMG, PHERAStar). II. Procedures […]
All reagents were equilibrated to room temperature. […] The cells were resuspended in RMPI 1640 culture medium containing 10% FBS, counted and adjusted to 3.33×10^6 cells/mL. […]
The reagents of the Human IL-12 detection kit was equilibrated to room temperature. […] Finally, a terminating solution was added to terminate the reaction, and the plate was detected for the absorbance at 450 nm using a microplate reader. […]
The ability of the compound disclosed herein to stimulate IL-12 and IFNγ secretion in PBMCs was determined by the above test and the MEC values obtained are shown in Table 1-5.

[2] = target: T1, CYP3A4 (testosterone metabolic site) (Homo sapiens, UniProt P08684); assay: Inhibition of testosterone metabolic site on human liver microsome CYP3A4; assay type: in vitro ADME; settings: human liver microsomes, testosterone probe
T1 construct: Human liver microsome (Corning Gentest); tissue Corning Gentest; host or cells: human liver microsomes
Protocol: Test example 4. Inhibitory effect of the compound disclosed herein on enzymatic activity of testosterone metabolic site on human liver microsome CYP3A4
The inhibitory effect of the compound disclosed herein on the enzymatic activity of the testosterone metabolic site on human liver microsome CYP3A4 was determined by the following procedures:
• 1. Phosphate buffered saline (PBS), • 2. NADPH (Sigma N-1630), • 3. Human liver microsome (Corning Gentest), • 4. ABI QTrap 4000 LC-MS/MS System (AB Sciex), • 5. Inertsil C8-3 column, 4.6×50 mm, 5 (Dikma, USA), • 6. CYP probe substrate (testosterone/100 μM, SIGMA K1003) and positive control inhibitor (ketoconazole, Dr. Ehrenstorfer GmbH, C17322500). II. Procedures
A 100 mM PBS buffer was prepared and was used to prepare a 2.5 mg/mL microsome solution and a 5 mM NADPH solution. A compound working solution at 5× concentration was serially diluted with PBS (150, 50, 15, 5, 1.5, 0.15, 0.015 and 0 μM). A ketoconazole working solution at 5× concentration was serially diluted with PBS (150, 50, 15, 5, 1.5, 0.15, 0.015 and 0 μM). A dextromethorphan working solution was diluted to 50 μM with PBS. […]
The IC50 values of the drug for testosterone metabolic site on CYP3A4 were calculated by Graphpad Prism and are shown in Table 1-4.

TLR7 = target: T2, TLR7 (Homo sapiens, UniProt Q9NYK1); settings: background statement; cited from earlier work
T2 sequence (Q9NYK1 27-1049): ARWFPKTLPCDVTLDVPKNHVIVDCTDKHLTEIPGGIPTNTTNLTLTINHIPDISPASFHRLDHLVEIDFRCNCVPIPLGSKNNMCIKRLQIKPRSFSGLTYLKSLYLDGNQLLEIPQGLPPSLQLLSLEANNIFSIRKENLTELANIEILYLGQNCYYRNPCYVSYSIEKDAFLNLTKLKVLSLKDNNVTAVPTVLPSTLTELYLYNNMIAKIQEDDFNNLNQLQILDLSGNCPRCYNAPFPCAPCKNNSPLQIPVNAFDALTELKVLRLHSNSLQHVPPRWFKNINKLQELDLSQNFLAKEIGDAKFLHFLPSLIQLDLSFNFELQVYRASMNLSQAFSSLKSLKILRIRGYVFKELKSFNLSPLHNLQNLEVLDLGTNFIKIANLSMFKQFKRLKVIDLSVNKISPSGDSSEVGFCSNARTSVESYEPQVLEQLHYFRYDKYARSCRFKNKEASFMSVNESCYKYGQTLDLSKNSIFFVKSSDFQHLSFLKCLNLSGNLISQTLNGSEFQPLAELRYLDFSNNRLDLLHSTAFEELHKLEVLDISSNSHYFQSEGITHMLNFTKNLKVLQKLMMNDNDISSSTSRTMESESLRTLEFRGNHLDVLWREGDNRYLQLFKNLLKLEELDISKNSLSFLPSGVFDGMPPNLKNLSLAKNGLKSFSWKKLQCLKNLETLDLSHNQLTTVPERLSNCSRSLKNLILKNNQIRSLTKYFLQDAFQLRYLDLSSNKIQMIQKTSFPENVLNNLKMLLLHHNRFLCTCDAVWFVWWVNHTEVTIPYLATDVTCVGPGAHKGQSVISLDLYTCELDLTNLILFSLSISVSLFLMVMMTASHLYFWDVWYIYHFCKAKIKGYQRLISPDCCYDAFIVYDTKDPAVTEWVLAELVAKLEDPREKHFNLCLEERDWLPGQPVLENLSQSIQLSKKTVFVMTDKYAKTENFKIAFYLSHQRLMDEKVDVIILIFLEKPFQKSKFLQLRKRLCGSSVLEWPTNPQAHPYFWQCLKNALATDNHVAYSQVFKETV

Cyp and hERG = settings: background statement; cited from earlier work
[3] = 30-day influencing factor stability test (heating, illumination, high humidity); assay type: physicochemical
Protocol: The crystalline form A and crystalline form B of the compound of formula (I) were transferred and let stand in clean open weighing bottles to test the stability under the conditions of heating (40° C., 60° C.), illumination (4500 1×±500 1×) and high humidity (90%±5%, 75%±5%) during an inspection period of 30 days.

[4] = Stability under long-term and accelerated conditions, 3 months; assay type: physicochemical
Protocol: The crystalline form B of the compound of formula (I) was examined for the stability under long-term (25° C., 60% RH) and accelerated (40° C., 75% RH) conditions in a period of 3 months.

T1 sequence (P08684 whole entry): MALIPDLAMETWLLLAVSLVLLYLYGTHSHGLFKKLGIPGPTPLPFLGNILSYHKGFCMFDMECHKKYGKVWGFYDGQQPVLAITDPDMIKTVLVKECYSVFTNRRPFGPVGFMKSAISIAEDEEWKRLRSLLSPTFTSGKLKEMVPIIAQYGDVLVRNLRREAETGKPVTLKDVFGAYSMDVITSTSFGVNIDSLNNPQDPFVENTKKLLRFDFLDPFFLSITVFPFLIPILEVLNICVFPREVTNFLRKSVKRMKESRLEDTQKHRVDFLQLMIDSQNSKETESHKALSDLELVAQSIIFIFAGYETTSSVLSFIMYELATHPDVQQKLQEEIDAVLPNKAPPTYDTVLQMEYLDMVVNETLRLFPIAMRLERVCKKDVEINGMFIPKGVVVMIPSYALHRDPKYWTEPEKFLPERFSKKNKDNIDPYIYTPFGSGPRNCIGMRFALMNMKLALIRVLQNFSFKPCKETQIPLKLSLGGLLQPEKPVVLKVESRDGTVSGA

SMILES | Purity ([3]; 40° C., 5 days) [%] | Purity ([3]; 40° C., 10 days) [%] | Purity ([3]; 40° C., 30 days) [%] | Purity ([3]; 60° C., 5 days) [%] | Purity ([3]; 60° C., 10 days) [%] | Purity ([3]; 60° C., 30 days) [%] | Purity ([3]; 4500 lux, 5 days) [%] | Purity ([3]; 4500 lux, 10 days) [%] | Purity ([3]; 4500 lux, 30 days) [%] | Purity ([3]; Initial, 0 days) [%] | Purity ([3]; RH 75%, 5 days) [%] | Purity ([3]; RH 75%, 10 days) [%] | Purity ([3]; RH 75%, 30 days) [%] | Purity ([3]; RH 90%, 5 days) [%] | Purity ([3]; RH 90%, 10 days) [%] | Purity ([3]; RH 90%, 30 days) [%] | Activity on TLR7 (in words) (TLR7) | Selectivity for Cyp and hERG (in words) (Cyp and hERG) | other results
CCCC[C@](C)(CO)Nc1nc(N)nc2cc(-c3ccc(CN4CCN(C)CC4)nc3)cnc12 [Example 1, (R)-2-((2-amino-7-(6-((4-methylpiperazin-1-yl)methyl)pyridin-3-yl)pyrido[3,2-d]pyrimidin-4-yl)amino)-2-methylhexan-1-ol] |  |  |  |  |  |  |  |  |  |  |  |  |  |  |  |  |  |  | IL-12 MEC (minimum effective concentration) [1]: 41 nM; IC50 at 30 min [2]: > 30 µM
CCCC[C@](C)(CO)Nc1nc(N)nc2cc(F)cnc12 [GS-9688] |  |  |  |  |  |  |  |  |  |  |  |  |  |  |  |  | certain activity on TLR7 | poor selectivity for Cyp and hERG | 
CCCN(CCC)C(=O)C1=Cc2ccc(-c3ccc(C(=O)N4CCCC4)cc3)cc2N=C(N)C1 [VTX-2337] |  |  |  |  |  |  |  |  |  |  |  |  |  |  |  |  | certain activity on TLR7 | poor selectivity for Cyp and hERG | 

The next lines start with results.

Purity ([3]; 40° C., 5 days) [%] | Purity ([3]; 40° C., 10 days) [%] | Purity ([3]; 40° C., 30 days) [%] | Purity ([3]; 60° C., 5 days) [%] | Purity ([3]; 60° C., 10 days) [%] | Purity ([3]; 60° C., 30 days) [%] | Purity ([3]; 4500 lux, 5 days) [%] | Purity ([3]; 4500 lux, 10 days) [%] | Purity ([3]; 4500 lux, 30 days) [%] | Purity ([3]; Initial, 0 days) [%] | Purity ([3]; RH 75%, 5 days) [%] | Purity ([3]; RH 75%, 10 days) [%] | Purity ([3]; RH 75%, 30 days) [%] | Purity ([3]; RH 90%, 5 days) [%] | Purity ([3]; RH 90%, 10 days) [%] | Purity ([3]; RH 90%, 30 days) [%] | SMILES | Activity on TLR7 (in words) (TLR7) | Selectivity for Cyp and hERG (in words) (Cyp and hERG) | other results
96.98 | 96.98 | 95.47 | 95.87 | 95.72 | 93.74 | 95.82 | 94.99 | 92.51 | 97.83 | 97.83 | 97.85 | 97.47 | 97.91 | 97.84 | 97.53 | CCCC[C@](C)(CO)Nc1nc(N)nc2cc(-c3ccc(CN4CCN(C)CC4)nc3)cnc12 [crystalline form A] |  |  | 
98.19 | 98.17 | 97.23 | 97.87 | 97.53 | 96.24 | 95.48 | 92.61 | 88.03 | 98.65 | 98.65 | 98.69 | 97.96 | 98.69 | 98.75 | 97.99 | CCCC[C@](C)(CO)Nc1nc(N)nc2cc(-c3ccc(CN4CCN(C)CC4)nc3)cnc12 [crystalline form B] |  |  | Physical and chemical stability (in words) ([4]; 3 months, long-term (25° C., 60% RH) and accelerated (40° C., 75% RH)): good physical and chemical stabilities; Purity ([4]; 25° C., 60% RH, Initial): 99.71%; Purity ([4]; 25° C., 60% RH, Month 1): 99.70%; Purity ([4]; 25° C., 60% RH, Month 2): 99.71%; Purity ([4]; 25° C., 60% RH, Month 3): 99.62%; Purity ([4]; 40° C., 75% RH, Initial): 99.71%; Purity ([4]; 40° C., 75% RH, Month 1): 99.69%; Purity ([4]; 40° C., 75% RH, Month 2): 99.68%; Purity ([4]; 40° C., 75% RH, Month 3): 99.54%
